Experimental data published in ChEMBL document CHEMBL4699575, “Discovery of First-In-Class Potent and Selective Tropomyosin Receptor Kinase Degraders” (J Med Chem, 2020).
One block for each molecule: values may come before it. Active and inactive are the calls of the source. The rule behind the calls is not given here.

Tests used:
KM12 [1] = assay: Induction of CRBN-mediated TMP3-TRKA (unknown origin) fusion protein degradation expressed in human KM12 cells at 0.1 nM for 6 hrs by immunoblot analysis relative to control; format: cell-based
KM12 [2] = assay: Induction of CRBN-mediated TMP3-TRKA (unknown origin) fusion protein degradation expressed in human KM12 cells at 10 nM for 6 hrs by immunoblot analysis relative to control; format: cell-based
KM12 [3] = assay: Induction of CRBN-mediated TMP3-TRKA (unknown origin) fusion protein degradation expressed in human KM12 cells at 1 nM for 6 hrs by immunoblot analysis relative to control; format: cell-based
[4] = target: T1, Protein cereblon/High affinity nerve growth factor receptor (Homo sapiens, UniProt P04629+Q96SW2); assay: Induction of CRBN-mediated TRKA degradation in human HEL cells at 30 nM for 6 hrs by immunoblot analysis; format: cell-based
Target sequence in this assay (P04629 33-796 limits assumed): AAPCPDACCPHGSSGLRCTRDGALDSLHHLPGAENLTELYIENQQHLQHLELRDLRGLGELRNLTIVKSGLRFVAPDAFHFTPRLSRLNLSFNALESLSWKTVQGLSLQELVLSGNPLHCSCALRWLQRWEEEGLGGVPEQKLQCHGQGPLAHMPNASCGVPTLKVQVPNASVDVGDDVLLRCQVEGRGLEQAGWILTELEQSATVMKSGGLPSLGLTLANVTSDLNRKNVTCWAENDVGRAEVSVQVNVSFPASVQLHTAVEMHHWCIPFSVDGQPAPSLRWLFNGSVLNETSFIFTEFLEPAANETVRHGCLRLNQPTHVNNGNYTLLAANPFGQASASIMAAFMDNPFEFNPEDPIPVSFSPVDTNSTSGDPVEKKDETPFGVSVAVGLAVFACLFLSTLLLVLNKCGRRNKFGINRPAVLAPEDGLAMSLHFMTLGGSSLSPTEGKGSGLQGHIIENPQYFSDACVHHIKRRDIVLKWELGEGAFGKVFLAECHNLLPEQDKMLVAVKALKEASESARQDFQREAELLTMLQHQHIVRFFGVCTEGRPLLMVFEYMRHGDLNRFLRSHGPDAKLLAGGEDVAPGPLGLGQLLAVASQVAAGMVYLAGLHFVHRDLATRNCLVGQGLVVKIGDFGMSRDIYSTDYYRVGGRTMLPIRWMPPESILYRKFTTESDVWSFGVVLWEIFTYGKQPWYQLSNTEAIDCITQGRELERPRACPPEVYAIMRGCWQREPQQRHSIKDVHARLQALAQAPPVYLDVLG
Target sequence in this assay (Q96SW2 whole entry partner): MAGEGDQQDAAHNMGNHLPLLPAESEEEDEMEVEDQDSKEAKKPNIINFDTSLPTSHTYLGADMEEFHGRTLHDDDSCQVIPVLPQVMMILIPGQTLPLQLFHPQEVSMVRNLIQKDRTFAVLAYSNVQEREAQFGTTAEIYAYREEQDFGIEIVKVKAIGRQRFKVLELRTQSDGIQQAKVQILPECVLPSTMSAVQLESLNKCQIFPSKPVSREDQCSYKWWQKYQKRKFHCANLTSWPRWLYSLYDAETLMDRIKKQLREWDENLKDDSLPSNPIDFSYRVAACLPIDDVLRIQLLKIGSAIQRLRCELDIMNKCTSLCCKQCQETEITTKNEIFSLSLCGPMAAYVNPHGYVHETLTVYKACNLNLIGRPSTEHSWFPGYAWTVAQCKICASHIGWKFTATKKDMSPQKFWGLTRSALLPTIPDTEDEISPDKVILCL

[5] = Binding affinity to human partial length TRKC expressed in mammalian expression system by kinomescan method
[6] = target: High affinity nerve growth factor receptor (Homo sapiens, UniProt P04629); assay: Binding affinity to human partial length TRKA expressed in mammalian expression system by kinomescan method
Chain of High affinity nerve growth factor receptor (P04629 whole entry): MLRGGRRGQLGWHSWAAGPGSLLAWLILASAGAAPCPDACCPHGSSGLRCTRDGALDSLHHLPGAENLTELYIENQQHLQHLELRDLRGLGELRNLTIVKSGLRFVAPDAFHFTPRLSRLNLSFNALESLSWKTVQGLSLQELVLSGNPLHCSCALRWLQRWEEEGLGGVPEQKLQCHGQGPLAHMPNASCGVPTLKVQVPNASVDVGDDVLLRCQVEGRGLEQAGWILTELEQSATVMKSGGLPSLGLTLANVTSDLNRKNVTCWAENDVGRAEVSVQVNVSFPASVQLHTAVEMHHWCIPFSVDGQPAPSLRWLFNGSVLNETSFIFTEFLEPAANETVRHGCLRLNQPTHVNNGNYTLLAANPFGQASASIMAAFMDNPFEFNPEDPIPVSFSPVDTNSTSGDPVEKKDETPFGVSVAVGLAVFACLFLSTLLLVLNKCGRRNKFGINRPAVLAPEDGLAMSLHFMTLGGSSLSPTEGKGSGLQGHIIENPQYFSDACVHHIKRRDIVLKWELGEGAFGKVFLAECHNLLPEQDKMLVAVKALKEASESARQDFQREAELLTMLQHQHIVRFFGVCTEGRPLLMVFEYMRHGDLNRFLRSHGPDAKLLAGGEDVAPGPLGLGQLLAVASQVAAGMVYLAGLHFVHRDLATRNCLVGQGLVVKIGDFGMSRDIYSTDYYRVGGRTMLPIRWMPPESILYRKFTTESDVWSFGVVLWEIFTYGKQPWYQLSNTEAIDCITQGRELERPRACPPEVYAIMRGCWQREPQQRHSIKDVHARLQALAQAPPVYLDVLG

KM12 [7] = assay: Effect on GSPT1 expression in human KM12 cells at 30 nM for 6 hrs by immunoblot analysis; format: functional, cell-based
[8] = target: BDNF/NT-3 growth factors receptor (Homo sapiens, UniProt Q16620); assay: Binding affinity to human partial length TRKB expressed in mammalian expression system by kinomescan method
Chain of BDNF/NT-3 growth factors receptor (Q16620 whole entry): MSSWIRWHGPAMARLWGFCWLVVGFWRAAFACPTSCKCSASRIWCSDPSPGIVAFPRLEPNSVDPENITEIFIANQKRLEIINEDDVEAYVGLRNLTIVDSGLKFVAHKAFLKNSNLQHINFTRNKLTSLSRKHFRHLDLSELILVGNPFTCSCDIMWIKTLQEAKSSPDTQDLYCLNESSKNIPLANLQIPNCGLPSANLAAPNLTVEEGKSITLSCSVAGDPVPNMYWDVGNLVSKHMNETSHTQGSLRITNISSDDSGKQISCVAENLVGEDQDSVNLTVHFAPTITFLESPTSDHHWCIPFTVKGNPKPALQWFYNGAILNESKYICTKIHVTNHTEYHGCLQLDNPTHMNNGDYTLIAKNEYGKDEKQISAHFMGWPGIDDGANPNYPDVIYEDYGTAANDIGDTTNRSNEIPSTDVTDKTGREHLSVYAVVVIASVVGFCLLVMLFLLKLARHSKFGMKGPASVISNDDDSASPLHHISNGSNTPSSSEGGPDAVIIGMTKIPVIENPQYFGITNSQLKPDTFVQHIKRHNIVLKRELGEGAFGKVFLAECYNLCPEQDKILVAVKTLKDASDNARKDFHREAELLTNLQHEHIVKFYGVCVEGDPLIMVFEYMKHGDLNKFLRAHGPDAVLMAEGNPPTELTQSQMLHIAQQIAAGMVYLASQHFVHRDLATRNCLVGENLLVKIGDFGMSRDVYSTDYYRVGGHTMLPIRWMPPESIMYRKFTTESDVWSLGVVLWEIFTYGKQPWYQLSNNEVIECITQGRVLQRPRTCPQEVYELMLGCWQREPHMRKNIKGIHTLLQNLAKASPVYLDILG

KM12 [9] = assay: Antiproliferative activity against human KM12 cells assessed as reduction in cell viability measured after 3 days by Celltiter-Glo assay; format: functional, cell-based; settings: KM12, 72 h
KM12 [10] = assay: Induction of CRBN-mediated TMP3-TRKA (unknown origin) fusion protein degradation expressed in human KM12 cells at 10 nM for 6 hrs pretreated with bortezomib by immunoblot analysis; format: cell-based
KM12 [11] = assay: Induction of CRBN-mediated TMP3-TRKA (unknown origin) fusion protein degradation expressed in human KM12 cells assessed as inhibition of PLC-gamma1 phosphorylation at 10 nM for 0.3 hrs by immunoblot analysis; format: cell-based
KM12 [12] = assay: Induction of CRBN-mediated TMP3-TRKA (unknown origin) fusion protein degradation expressed in human KM12 cells at 10 nM for 6 hrs pretreated with pomalidomide by immunoblot analysis; format: cell-based
KM12 [13] = assay: Induction of CRBN-mediated TMP3-TRKA (unknown origin) fusion protein degradation expressed in human KM12 cells at 10 nM for 4 hrs by immunoblot analysis; format: cell-based
KM12 [14] = assay: Induction of CRBN-mediated ETV6-TRKC (unknown origin) fusion protein degradation expressed in human KM12 cells at 0.7 to 500 nM for 6 hrs by immunoblot analysis; format: cell-based; settings: dose nM 0.7-500, time 6.0 hrs
KM12 [15] = assay: (§1) Induction of CRBN-mediated TMP3-TRKA (unknown origin) fusion protein degradation expressed in human KM12 cells assessed as inhibition of PLC-gamma1 phosphorylation for 6 hrs by immunoblot analysis; format: cell-based
[16] = as §1; format: cell-based; settings: KM12, 6 h
KM12 [17] = assay: Induction of CRBN-mediated TMP3-TRKA (unknown origin) fusion protein degradation expressed in human KM12 cells at 30 nM for 6 hrs by immunoblot analysis; format: cell-based
KM12 [18] = assay: Effect on GSPT1 expression in human KM12 cells at 0.04 to 30 nM for 6 hrs by immunoblot analysis; format: functional, cell-based; settings: dose nM 0.04-30, time 6.0 hrs
KM12 [19] = assay: Induction of CRBN-mediated TMP3-TRKA (unknown origin) fusion protein degradation expressed in human KM12 cells at 10 nM for 6 hrs pretreated with MG-132 by immunoblot analysis; format: cell-based
KM12 [20] = assay: Induction of CRBN-mediated TMP3-TRKA (unknown origin) fusion protein degradation expressed in human KM12 cells at 10 nM for 6 hrs pretreated with MLN4924 by immunoblot analysis; format: cell-based
[21] = Induction of CRBN-mediated TMP3-TRKA (unknown origin) fusion protein degradation expressed in human KM12 cells for 6 hrs by immunoblot analysis; format: cell-based; settings: KM12, 6 h
[22] = target: T1, Protein cereblon/High affinity nerve growth factor receptor; assay: Induction of CRBN-mediated TRKA degradation in human HEL cells for 6 hrs by immunoblot analysis; format: cell-based
Target sequence in this assay (P04629 whole entry): as the sequence (P04629 whole entry) above
Target sequence in this assay (Q96SW2 whole entry): as the sequence (Q96SW2 whole entry partner) above

[23] = Plasma concentration in ICR mouse at 10 mg/kg, ip measured at 8 hrs; format: ADME, organism-based
[24] = Cmax in ICR mouse at 10 mg/kg, ip measured for 1 hr; format: ADME, organism-based; set-up: route intraperitoneal, dose 10 mg/kg, time 1 hrs; settings: in vivo
KM12 [25] = assay: Induction of CRBN-mediated TMP3-TRKA (unknown origin) fusion protein degradation expressed in human KM12 cells at 10 nM for 0.3 hrs by immunoblot analysis; format: cell-based
KM12 [26] = assay: Induction of CRBN-mediated TMP3-TRKA (unknown origin) fusion protein degradation expressed in human KM12 cells assessed as inhibition of PLC-gamma1 phosphorylation at 10 nM for 4 hrs by immunoblot analysis; format: cell-based
KM12 [27] = assay: Induction of CRBN-mediated AGBL4-TRKB (unknown origin) fusion protein degradation expressed in human KM12 cells at 0.7 to 500 nM for 6 hrs by immunoblot analysis; format: cell-based; settings: dose nM 0.7-500, time 6.0 hrs
[28] = target: T2, Tropomyosin alpha-3 chain/High affinity nerve growth factor receptor (Homo sapiens) (UniProt P04629+P06753); assay: Induction of TMP3-TRKA (unknown origin) fusion protein degradation expressed in human KM12 cells transfected with siCRBN-1 at 0.1 to 10 nM for 6 hrs by immunoblot analysis; format: cell-based; settings: dose nM 0.1-10, time 6.0 hrs
T2 sequence (P04629 whole entry, looked up, the tested form may be a part): as the sequence (P04629 whole entry) above
T2 sequence (P06753 whole entry, looked up, the tested form may be a part): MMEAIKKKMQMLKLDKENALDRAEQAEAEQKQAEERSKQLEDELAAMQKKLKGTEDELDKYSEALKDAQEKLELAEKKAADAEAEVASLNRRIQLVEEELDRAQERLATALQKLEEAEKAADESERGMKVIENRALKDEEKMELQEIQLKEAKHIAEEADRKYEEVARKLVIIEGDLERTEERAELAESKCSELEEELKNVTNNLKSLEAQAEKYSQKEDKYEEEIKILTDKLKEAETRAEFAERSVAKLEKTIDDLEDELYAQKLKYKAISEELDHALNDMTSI

[29] = Half life in ICR mouse at 10 mg/kg, ip measured upto 8 hrs; format: ADME, organism-based; settings: in vivo
[30] = target: T2, Tropomyosin alpha-3 chain/High affinity nerve growth factor receptor (Homo sapiens); assay: Induction of TMP3-TRKA (unknown origin) fusion protein degradation expressed in human KM12 cells transfected with siCRBN-2 at 0.1 to 10 nM for 6 hrs by immunoblot analysis; format: cell-based; settings: dose nM 0.1-10, time 6.0 hrs

SMILES: O=C1CCC(N2C(=O)c3cccc(NCCCCCCCC(=O)N4CCN(c5cccc(-c6cnc7ccc(N8CCC[C@@H]8c8cccc(F)c8)nn67)n5)CC4)c3C2=O)C(=O)N1 (some centres undefined)
Activity (KM12 [1]): 20%
Activity (KM12 [2]): 83%
Activity (KM12 [3]): 21%

SMILES: O=C1CCC(N2C(=O)c3cccc(NCC(=O)N4CCN(c5cccc(-c6cnc7ccc(N8CCC[C@@H]8c8cccc(F)c8)nn67)n5)CC4)c3C2=O)C(=O)N1 (some centres undefined)
Activity (KM12 [1]): 15%
Activity (KM12 [2]): 93%
Activity (KM12 [3]): 45%

SMILES: O=C1CCC(N2C(=O)c3cccc(NCCCC(=O)N4CCN(c5cccc(-c6cnc7ccc(N8CCC[C@@H]8c8cccc(F)c8)nn67)n5)CC4)c3C2=O)C(=O)N1 (some centres undefined)
Activity (KM12 [1]): 12%
Activity (KM12 [2]): 94%
Activity (KM12 [3]): 63%

SMILES: O=C1CCC(N2C(=O)c3cccc(NCCOCCOCCOCCOCCC(=O)N4CCN(c5cccc(-c6cnc7ccc(N8CCC[C@@H]8c8cccc(F)c8)nn67)n5)CC4)c3C2=O)C(=O)N1 (some centres undefined)
Activity (KM12 [1]): 22%
Activity (KM12 [2]): 91%
Activity (KM12 [3]): 40%

SMILES: O=C1CCC(N2C(=O)c3cccc(NCCCCC(=O)N4CCN(c5cccc(-c6cnc7ccc(N8CCC[C@@H]8c8cccc(F)c8)nn67)n5)CC4)c3C2=O)C(=O)N1 (some centres undefined)
Activity (KM12 [1]): 20%
Activity (KM12 [2]): 93%
Activity (KM12 [3]): 69%

SMILES: O=C1CCC(N2C(=O)c3cccc(NCCCCCCC(=O)N4CCN(c5cccc(-c6cnc7ccc(N8CCC[C@@H]8c8cccc(F)c8)nn67)n5)CC4)c3C2=O)C(=O)N1 (some centres undefined)
Activity (KM12 [1]): 21%
Activity (KM12 [2]): 90%
Activity (KM12 [3]): 23%

Activity [4]: inactive
Kd [5]: 4.8 nM
Kd [6]: 0.88 nM
Kd [8]: 59.8 nM
SMILES: CN1C(=O)CCC(N2C(=O)c3cccc(NCCOCCC(=O)N4CCN(c5cccc(-c6cnc7ccc(N8CCC[C@@H]8c8cccc(F)c8)nn67)n5)CC4)c3C2=O)C1=O (some centres undefined)
Activity (KM12 [7]): inactive
IC50 (KM12 [9]): 28 nM

SMILES: O=C1CCC(N2C(=O)c3cccc(NCCOCCOCCOCCC(=O)N4CCN(c5cccc(-c6cnc7ccc(N8CCC[C@@H]8c8cccc(F)c8)nn67)n5)CC4)c3C2=O)C(=O)N1 (some centres undefined)
Activity (KM12 [1]): 22%
Activity (KM12 [2]): 86%
Activity (KM12 [3]): 28%

SMILES: O=C1CCC(N2C(=O)c3cccc(NCCC(=O)N4CCN(c5cccc(-c6cnc7ccc(N8CCC[C@@H]8c8cccc(F)c8)nn67)n5)CC4)c3C2=O)C(=O)N1 (some centres undefined)
Activity (KM12 [1]): 9%
Activity (KM12 [2]): 65%
Activity (KM12 [3]): 15%

IC50 [16]: 30 nM
Kd [5]: 4.2 nM
Kd [6]: 1 nM
DC50 [21]: 0.36 nM
DC50 [22]: 2.23 nM
concentration at 8 h [23]: 12.4 nM
Cmax [24]: 1640 nM
Kd [8]: 28 nM
SMILES: O=C1CCC(N2C(=O)c3cccc(NCCOCCC(=O)N4CCN(c5cccc(-c6cnc7ccc(N8CCC[C@@H]8c8cccc(F)c8)nn67)n5)CC4)c3C2=O)C(=O)N1 (some centres undefined)
Activity (KM12 [10]): inactive
inhibition (KM12 [11]): Active
Activity (KM12 [12]): inactive
Activity (KM12 [1]): 46%
Activity (KM12 [13]): Active
Activity (KM12 [14]): Active
inhibition (KM12 [15]): Dose-dependent effect
Activity (KM12 [2]): 96%
Activity (KM12 [17]): Active
Activity (KM12 [18]): inactive
Activity (KM12 [19]): inactive
Activity (KM12 [20]): inactive
Activity (KM12 [3]): 82%
Activity (KM12 [25]): Active
inhibition (KM12 [26]): Active
Activity (KM12 [27]): Active
IC50 (KM12 [9]): 52 nM

Kd [5]: 5.4 nM
Kd [6]: 0.81 nM
Kd [8]: 22.7 nM
SMILES: OC1CCN(c2cc(-c3cccc(-c4cnc5ccc(N6CCC[C@@H]6c6cccc(F)c6)nn45)n3)ccn2)CC1
Activity (KM12 [1]): 6%
Activity (KM12 [2]): 52%
Activity (KM12 [3]): 16%
IC50 (KM12 [9]): 16 nM

SMILES: O=C1CCC(N2C(=O)c3cccc(NCCOCCOCCC(=O)N4CCN(c5cccc(-c6cnc7ccc(N8CCC[C@@H]8c8cccc(F)c8)nn67)n5)CC4)c3C2=O)C(=O)N1 (some centres undefined)
Activity (KM12 [1]): 30%
Activity (KM12 [2]): 95%
Activity (KM12 [3]): 56%

Activity [4]: inactive
Kd [5]: 24.2 nM
Kd [6]: 2.9 nM
Kd [8]: 187 nM
SMILES: CN1C(=O)CCC(N2C(=O)c3cccc(NCCCCCC(=O)N4CCN(c5cccc(-c6cnc7ccc(N8CCC[C@@H]8c8cccc(F)c8)nn67)n5)CC4)c3C2=O)C1=O (some centres undefined)
Activity (KM12 [7]): inactive
IC50 (KM12 [9]): 2.9 nM

Activity [28]: inactive
IC50 [16]: 30 nM
half-life [29]: 54 min
Kd [5]: 18 nM
Kd [6]: 2.1 nM
DC50 [21]: 0.48 nM
DC50 [22]: 1.26 nM
concentration at 8 h [23]: 14.8 nM
Activity [30]: inactive
Cmax [24]: 2050 nM
Kd [8]: 112 nM
SMILES: O=C1CCC(N2C(=O)c3cccc(NCCCCCC(=O)N4CCN(c5cccc(-c6cnc7ccc(N8CCC[C@@H]8c8cccc(F)c8)nn67)n5)CC4)c3C2=O)C(=O)N1 (some centres undefined)
Activity (KM12 [10]): inactive
inhibition (KM12 [11]): Active
Activity (KM12 [12]): inactive
Activity (KM12 [1]): 18%
Activity (KM12 [13]): Active
Activity (KM12 [14]): Active
inhibition (KM12 [15]): Dose-dependent effect
Activity (KM12 [2]): 96%
Activity (KM12 [17]): Active
Activity (KM12 [18]): inactive
Activity (KM12 [19]): inactive
Activity (KM12 [20]): inactive
Activity (KM12 [3]): 65%
Activity (KM12 [25]): Active
inhibition (KM12 [26]): Active
Activity (KM12 [27]): Active
IC50 (KM12 [9]): 5.4 nM
